Experimental findings from ChEMBL document CHEMBL4017461, “Investigation of the inhibitory mechanism of apomorphine against MDM2-p53 interaction” (Bioorg Med Chem Lett, 2017) are described below.

Assay [1] has as its target T1, E3 ubiquitin-protein ligase Mdm2 (Homo sapiens, UniProt Q00987). In words: Inhibition of biotin-labelled L-p53 binding to L-MDM2 (25 to 109 residues) (unknown origin) by FAM labeled P4 peptide based fluorescence polarization assay. (Polarisation of emitted light reports the rotation of a fluorescent probe.)
Target sequence in this assay (Q00987 whole entry, the tested form may be a part): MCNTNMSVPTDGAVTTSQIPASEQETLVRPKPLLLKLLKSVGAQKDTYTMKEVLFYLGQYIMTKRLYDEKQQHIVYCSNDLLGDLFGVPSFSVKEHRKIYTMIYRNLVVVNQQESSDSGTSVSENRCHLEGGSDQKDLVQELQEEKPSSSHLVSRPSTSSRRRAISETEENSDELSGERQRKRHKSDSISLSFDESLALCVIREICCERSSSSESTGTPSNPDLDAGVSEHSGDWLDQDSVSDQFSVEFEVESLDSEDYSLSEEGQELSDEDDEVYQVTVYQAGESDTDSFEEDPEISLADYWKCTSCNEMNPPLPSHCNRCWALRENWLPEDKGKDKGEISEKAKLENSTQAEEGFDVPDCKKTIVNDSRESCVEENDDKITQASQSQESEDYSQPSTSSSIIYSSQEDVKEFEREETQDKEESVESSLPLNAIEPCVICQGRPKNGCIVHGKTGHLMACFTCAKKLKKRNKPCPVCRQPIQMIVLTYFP
Assay [2] has as its target T1, E3 ubiquitin-protein ligase Mdm2. In words: Inhibition of biotin-labelled p53 binding to MDM2 (25 to 109 residues) (unknown origin) by surface plasmon resonance method. A general note: Surface plasmon resonance follows binding to a sensor surface in real time, without labels.
For assay [3] the target is unchanged. Put plainly: Inhibition of biotin-labelled P4 peptide binding to MDM2 (25 to 109 residues) (unknown origin) by surface plasmon resonance method.
Target sequence in this assay (Q00987 whole entry, the tested form may be a part): as above
Assay [4] in a line: Inhibition of biotin-labelled P4 peptide binding to MDM2 Cys(Me)77 mutant (unknown origin) by surface plasmon resonance method. Details: species or system Homo sapiens.
The nature of assay [5]: Inhibition of biotin-labelled P4 peptide binding to MDM2 Ser77 mutant (unknown origin) by surface plasmon resonance method. Also on record: species or system Homo sapiens.
For assay [6], the target named is T1, E3 ubiquitin-protein ligase Mdm2. In words: Inhibition of biotin-labelled D-p53 binding to D-MDM2 (25 to 109 residues) (unknown origin) by FAM labeled P4 peptide based fluorescence polarization assay.
Target sequence in this assay (Q00987 whole entry, looked up, the tested form may be a part): as the sequence (Q00987 whole entry, the tested form may be a part) above
A short description of assay [7]: Drug level in 1:1 PBS/CH3CN mixture treated with R-(-)-apomorphine at 10 mM measured after 24 hrs by HPLC method.
The next assay is filed under the species Homo sapiens. Put plainly: Binding affinity to MDM2 Cys(Me)77 mutant (unknown origin) assessed as adduct formation at 10 uM after 10 mins by MALDI-TOF-MS analysis.
For assay [8], the target named is T1, E3 ubiquitin-protein ligase Mdm2. Put plainly: Binding affinity to MDM2 (25 to 109 residues) (unknown origin) assessed as adduct formation at 10 uM after 10 mins by MALDI-TOF MS analysis.
Target sequence in this assay (Q00987 whole entry, looked up, the tested form may be a part): as the sequence (Q00987 whole entry, the tested form may be a part) above
The nature of assay [9]: Inhibition of biotin-labelled p53 binding to MDM2 Ser77 mutant (unknown origin) by surface plasmon resonance method. Details: species or system Homo sapiens.

Calls of active or inactive are those of the source. The calls are words filed in the database; no cut-off is given here. Some results are limits rather than exact numbers.

A word on the IC50: it is the concentration that gives 50% inhibition.

For the compound `CN1CCc2cccc3c2[C@@H]1Cc1ccc(O)c(O)c1-3` [(S)APOMORPHINE], the half-inhibitory concentration (IC50) in assay [1] was 0.175 µM.
On to `CN1CCc2cccc3c2[C@H]1Cc1ccc(O)c(O)c1-3` [APOMORPHINE], for which the IC50 in assay [1] is 0.215 µM; in assay [3], above 30 µM; in [4], above 30 µM; in assay [5], above 30 µM; in [6], 0.195 µM. The inhibition result in assay [2] was “inactive”.
For the compound `Oc1ccccc1O` [CATECHOL], the IC50 in assay [2] was above 100 µM.
Take `CN1CCc2cccc3c4c(cc1c23)C=CC(=O)C4=O`: the inhibition result in [2] is “Active”. The IC50 was 1.7 µM in [3], above 30 µM in assay [4] and above 30 µM in assay [5]. For the same compound, in assay [7], the Drug metabolism result was “Metabolite detected”. In addition, the outcome in the assay listed under Homo sapiens was Active. In addition, the outcome in assay [8] was inactive.
As for `O=C1C=CC(=O)C=C1` [BENZOQUINONE], the IC50 in assay [2] was 13.9 µM; in assay [9], above 100 µM.
